In US10935541B2 (priority 2014, dated 2021):
“Also recorded” adds a separate entry of the source. Where two headings read alike, the source gives them in different places.

Columns and labels:
[1] = tested on: myotubes from muscle-only cultures; format: cell-based, rat
Description: Muscle-only control cultures were established in parallel to all co-cultures examined. These cultures were subjected to identical culture parameters minus the plating of ventral horn cells after 7 days in vitro.
(§1) Myotube contraction was recorded and characterized via measurement of cantilever deflection using an automated system. In this system, cantilevers supporting co-cultured myotubes and motoneurons were inserted into a transparent culture dish fitted into a modified upright Olympus BX51WI electrophysiology microscope. The culture dish was filled with NBActiv4 medium (+10 mM HEPES) to maintain the cells during the analysis. A heated culture dish system (Delta T, Bioptechs, Butler, Pa.) was incorporated into the stage to maintain the culture at 37° C. throughout the analysis.
(§2) Broad field electrical stimulation was first used to verify the contractile ability of the cultured myotubes. Cultures were subjected to a 3 V, 40 ms pulse at a frequency of 1 Hz, and the cantilevers were scanned for 5 seconds each to identify those with active myotubes. Across all experimental conditions, a successful contractile response was taken as any peak equal to or larger than 0.1 V.
(§3) The electrical stimulus was then switched off and the active cantilevers scanned again in order to observe the rate of spontaneous contraction. This condition was followed by bath application of 200 μM glutamate to stimulate motoneuron firing, and the cantilevers were again scanned for evidence of contractile activity. A second application of glutamate was made following addition of 12.5 μM D-tubocurarine (Sigma-Aldrich) to block neuromuscular transmission. The cantilevers were again scanned for contractile activity following this treatment. Finally, cantilevers were subjected to the same broad-field electrical stimulation as was used initially and scanned for contractile activity to verify that the treatments had not destroyed the contractile capability of the myotube or caused the cells to detach.
(§4) Conversion of photo-detector readings to cantilever deflection and myotube force were performed using a modified Stoney's equation (Wilson et al., 2010). Briefly, the photo-detector measured the changes in cantilever bending-induced laser deflection (reported in Volts) from which the deflection of the cantilever tip was calculated. Equations (1) and (2) are restated equations (see, e.g., Wilson et al., 2010) for cantilever tip deflection (δ) and stress produced by the myotube, assuming a uniform thick film the full width of the cantilever (σc). The system parameters used in these equations were the system-specific coefficient relating voltage to laser position on the photo-detector (Cdetector), the angle of the laser and detector relative to the plane of the cantilever (A), the elastic modulus of silicon (ESi), the thicknesses of the cantilever (tSi) and myotube (tf), poison's ratio of silicon (vSi), cantilever length (L), path length of laser from cantilever tip to detector (P), and the width of the cantilever (wsi).
Differences in force per contraction and in contraction frequency were measured for the three conditions: (i) Spontaneous activity, (ii) 200 μM glutamate, and (iii) 12.5 μM D-tubocurarine following glutamate. The differences were evaluated statistically using one-way repeated measures ANOVA (α=0.05) both for the muscle-only controls and for the motoneuron-myotube co-cultures. […]

[2] = tested on: co-cultures of primary rat muscle cells and motoneurons; format: cell-based; conditions: for average contraction frequency: co-culture 13 days in vitro, n=10, spontaneous 1.4 Hz; for contractile force (average peak force): mean ± SEM
Description: as §1
The automated system consisted of a Helium Neon laser beam that was automatically scanned across the tips of each cantilever at a 30° angle relative to the plane of the cantilever. A quadrant photo-detector module was also moved to detect the reflected beam. Four stepper motor-driven linear actuators attached to XY translational stages controlled the positions of the laser and photo-detector, with each unit mounted to an XY stage and requiring an actuator for the X and Y translation directions. A temperature-controlled stage was incorporated into the unit to maintain the cells at physiological temperature. Stainless steel electrodes were mounted inside the stage dish at a separation distance of 15 mm. To allow the system to produce field stimulation of myotubes when appropriate, the electrodes were connected to a pulse generator (A-M systems, Sequim, Wash.), which was capable of producing field stimulation pulses of varying intensity, frequency, and waveform.
as §2, §3, §4
Differences in force per contraction and in contraction frequency were measured for the three conditions: (i) Spontaneous activity, (ii) 200 μM glutamate, and (iii) 12.5 μM D-tubocurarine following glutamate. […]

neuromuscular junction = format: cell-based
ventral horn motoneurons = experiment: Whole-cell patch-clamp recording of cultured motoneurons, response to glutamate; format: cell-based, rat
Source text: After 11-13 days in vitro, electrophysiological properties of ventral horn motoneurons were investigated using whole-cell patch-clamp recording techniques. Glass coverslips with cultured ventral horn cells were transferred to a recording chamber located on the stage of a Zeiss Axioscope 2FS Plus upright microscope. Motoneurons were identified visually under an infrared differential interference contrast (DIC) video-microscope. The largest multipolar cells (15-20 μm diameters) with bright somas were identified as motoneurons. Borosilicate glass patch pipettes (BF 150-86-10; Sutter Instrument Company) with a resistance of 6-10 MΩ were made using a Sutter P97 pipette puller (Sutter Instrument Company). Current-clamp and voltage-clamp recordings were made using a Multiclamp 700 A amplifier (Axon instruments). The pipette (intracellular) solution contained 1 mM EGTA, 140 mM K-gluconate, 2 mM MgCl2, 2 mM Na2ATP and 10 mM HEPES (pH 7.2). NBActiv4 medium plus 10 mM HEPES (pH 7.2) was used as the extracellular solution.
After the formation of a giga-ohm seal and membrane puncture, the cell capacitance was compensated. Signals were filtered at 3 kHz and sampled at 20 kHz using a Digidata 1322A interface (Axon Instruments). Data recording and analysis were performed with pClamp8 software (Axon Instruments). Membrane potentials were corrected by subtraction of a 15 mV tip potential, which was calculated using Axon's pClamp8 program. Depolarization-evoked inward and outward currents were examined in voltage-clamp mode. Depolarization-evoked action potentials were examined in current-clamp mode and induced using 1 second depolarizing current injections from a −70 mV holding potential. Action potentials elicited in response to 200 μM glutamate (an excitatory neurotransmitter) (Sigma-Aldrich) injection into the extracellular solution were likewise measured in current-clamp mode from a −70 mV holding potential.
Patch-clamp recordings verified the ability of the co-culture protocol to promote the maturation of electrically-active motoneurons after 11-13 days in culture. […]

## COc1cc2c3cc1Oc1cc(ccc1O)C[C@@H]1c4c(cc(OC)c(O)c4Oc4ccc(cc4)C[C@@H]3N(C)CC2)CC[N+]1(C)C [D-tubocurarine]
[1]; 12.5 μM D-tubocurarine, all control cases
  inhibitory effect on myotube contraction: no inhibitory effect on myotube contraction
[1]; 12.5 μM D-tubocurarine, muscle-only controls, p=0.04
  contraction frequency compared with frequency in response to glutamate: significant increase in contraction frequency
[2]; 12.5 μM D-tubocurarine with glutamate
  average contraction frequency: 1.4 Hz
[2]; 12.5 μM D-tubocurarine, co-culture
  contractile force compared with force in response to glutamate: not significantly different
[2]; after addition of 12.5 μM D-tubocurarine, co-culture
  contractile force (average peak force): 45.1 nN
[2]; all cases of glutamate increasing contraction frequency by at least 2 Hz
  effect on glutamate-increased contraction frequency: returned the contraction frequency to spontaneous levels

## α-Bungarotoxin
Neuromuscular junction
  effect on myotube contractions, stimulation from first chamber (myotube side): did not inhibit contraction; also recorded: contractions are still possible
  effect on myotube contractions, stimulation from second chamber (motoneuron side): less and less responsive; also recorded: decreased contraction of the myotubes

## N[C@@H](CCC(=O)O)C(=O)O [glutamate]
[1]; 200 μM glutamate, muscle-only controls
  largest increase in contraction frequency in response to glutamate: 0.85 Hz
[1]; 200 μM glutamate, muscle-only cultures, n=10
  effect on contraction frequency: did not significantly alter contraction frequency
[1]; glutamate, muscle-only controls, n=7, p=0.24
  effect on force generated by contracting myotubes: no effect
Ventral horn motoneurons; 200 μM glutamate bath application
  duration of motoneuron activity in response to glutamate: roughly 2.5 minutes
Ventral horn motoneurons; 200 μM glutamate, gap-free current-clamp, -70 mV holding potential, n=17
  response of motoneurons to bath application (membrane depolarization, action potentials): depolarization of the membrane and elicited action potentials in all motoneurons examined
Ventral horn motoneurons; second application of glutamate, n=3
  response of patched motoneurons to a second application: again depolarized the motoneuron membrane in all cells examined
[2]; 200 μM glutamate
  average contraction frequency: 4.9 Hz
[2]; glutamate, co-culture, n=10, p=0.60
  effect on force generated by contracting myotubes: no significant effect
[2]; glutamate-evoked contractions, 200 μM, co-culture, spontaneous 106.0 nN
  contractile force (average peak force): 67.4 nN
